How the values were obtained:
PDGFRA = molecular target: T1, PDGFRA (Homo sapiens, UniProt P16234); experiment: KINOMEscan active-site competitive binding assay; settings: slash = two separate measurements
T1 construct: purchased DiscoveRx

FLT4 = molecular target: T2, FLT4 (Homo sapiens, UniProt P35916); experiment: KINOMEscan active-site competitive binding assay; settings: slash = two separate measurements
T2 construct: purchased DiscoveRx (KINOMEscan service)

FLT3^D835H = molecular target: T3, FLT3^D835H (Homo sapiens, UniProt P36888, D835H); experiment: KINOMEscan active-site competitive binding assay
T3 construct: purchased DiscoveRx

RET^V804L = molecular target: T4, RET^V804L (Homo sapiens, UniProt P07949, V804L); experiment: KINOMEscan active-site competitive binding assay
T4 construct: purchased DiscoveRx (KINOMEscan service)

BRAF^V600E = BRAF^V600E (Homo sapiens, UniProt P15056, V600E); experiment: KINOMEscan active-site competitive binding assay
PDGFRB = molecular target: T5, PDGFRB (Homo sapiens, UniProt P09619); experiment: KINOMEscan active-site competitive binding assay; settings: slash = two separate measurements
T5 construct: purchased DiscoveRx

KIT^V559D = molecular target: T6, KIT^V559D (Homo sapiens, UniProt P10721, V559D); experiment: KINOMEscan active-site competitive binding assay
T6 construct: purchased DiscoveRx (KINOMEscan service)

RAFs = experiment: KINOMEscan active-site competitive binding assay; settings: range among family members
KIT^K642E = molecular target: T7, KIT^K642E (Homo sapiens, UniProt P10721, K642E); experiment: Cellular kinase phosphorylation assay, GIST882/KIT^K642E; format: cell-based; settings: GIST882/KIT^K642E cells; 0.1% bovine serum albumin; brackets = number of experiments; read-out: Mean ± SD IC50
T7 construct: KIT^K642E assays were performed in a GIST cell line (GIST882); endogenous in cells; host or cells: GIST882

FLT3 = molecular target: T8, FLT3 (Homo sapiens, UniProt P36888); experiment: KINOMEscan active-site competitive binding assay; settings: slash = two separate measurements
T8 construct: purchased DiscoveRx (KINOMEscan service)

FLT3^K663Q = molecular target: T9, FLT3^K663Q (Homo sapiens, UniProt P36888, K663Q); experiment: KINOMEscan active-site competitive binding assay
T9 construct: purchased DiscoveRx

HuLECs = settings: 100 nmol/L, 40 h, regorafenib data taken from ref 14; cited from earlier work
[1] = system: BaF/3 cells expressing an imatinib‐resistant mutant KIT (557‐558del; T670I); experiment: In vitro proliferation, BaF/3 cells expressing imatinib‐resistant mutant KIT; format: cell-based; settings: unpubl. data
[2] = system: recombinant murine VEGFR2; settings: cited from earlier work

T4 sequence (P07949 29-1114 V804L): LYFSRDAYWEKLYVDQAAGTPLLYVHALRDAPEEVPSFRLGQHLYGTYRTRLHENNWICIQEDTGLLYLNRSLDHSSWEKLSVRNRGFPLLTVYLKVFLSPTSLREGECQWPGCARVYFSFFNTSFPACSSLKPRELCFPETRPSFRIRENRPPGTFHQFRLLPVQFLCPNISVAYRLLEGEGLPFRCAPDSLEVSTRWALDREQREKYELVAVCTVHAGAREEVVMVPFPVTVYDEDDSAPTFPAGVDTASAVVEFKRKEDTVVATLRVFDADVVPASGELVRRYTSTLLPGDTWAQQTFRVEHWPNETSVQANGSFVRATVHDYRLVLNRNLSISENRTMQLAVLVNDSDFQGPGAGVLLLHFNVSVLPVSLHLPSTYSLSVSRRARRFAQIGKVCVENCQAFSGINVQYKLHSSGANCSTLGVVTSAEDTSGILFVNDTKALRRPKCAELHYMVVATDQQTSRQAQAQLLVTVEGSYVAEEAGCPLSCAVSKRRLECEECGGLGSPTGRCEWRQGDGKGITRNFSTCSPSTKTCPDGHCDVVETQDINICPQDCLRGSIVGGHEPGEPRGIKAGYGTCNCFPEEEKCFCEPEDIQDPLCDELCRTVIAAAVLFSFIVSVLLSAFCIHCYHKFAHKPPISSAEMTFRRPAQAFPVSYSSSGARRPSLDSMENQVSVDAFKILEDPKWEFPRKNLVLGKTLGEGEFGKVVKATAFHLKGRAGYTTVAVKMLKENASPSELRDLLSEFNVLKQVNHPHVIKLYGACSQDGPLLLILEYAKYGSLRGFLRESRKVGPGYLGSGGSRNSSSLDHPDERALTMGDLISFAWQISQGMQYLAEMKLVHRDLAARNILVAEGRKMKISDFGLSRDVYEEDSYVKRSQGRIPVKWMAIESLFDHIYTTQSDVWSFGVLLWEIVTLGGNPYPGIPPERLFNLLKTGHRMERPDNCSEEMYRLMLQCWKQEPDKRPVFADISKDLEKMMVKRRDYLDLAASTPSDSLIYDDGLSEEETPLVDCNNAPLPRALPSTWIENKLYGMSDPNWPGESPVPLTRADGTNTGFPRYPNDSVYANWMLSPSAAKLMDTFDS
Chain of BRAF^V600E (P15056 whole entry V600E): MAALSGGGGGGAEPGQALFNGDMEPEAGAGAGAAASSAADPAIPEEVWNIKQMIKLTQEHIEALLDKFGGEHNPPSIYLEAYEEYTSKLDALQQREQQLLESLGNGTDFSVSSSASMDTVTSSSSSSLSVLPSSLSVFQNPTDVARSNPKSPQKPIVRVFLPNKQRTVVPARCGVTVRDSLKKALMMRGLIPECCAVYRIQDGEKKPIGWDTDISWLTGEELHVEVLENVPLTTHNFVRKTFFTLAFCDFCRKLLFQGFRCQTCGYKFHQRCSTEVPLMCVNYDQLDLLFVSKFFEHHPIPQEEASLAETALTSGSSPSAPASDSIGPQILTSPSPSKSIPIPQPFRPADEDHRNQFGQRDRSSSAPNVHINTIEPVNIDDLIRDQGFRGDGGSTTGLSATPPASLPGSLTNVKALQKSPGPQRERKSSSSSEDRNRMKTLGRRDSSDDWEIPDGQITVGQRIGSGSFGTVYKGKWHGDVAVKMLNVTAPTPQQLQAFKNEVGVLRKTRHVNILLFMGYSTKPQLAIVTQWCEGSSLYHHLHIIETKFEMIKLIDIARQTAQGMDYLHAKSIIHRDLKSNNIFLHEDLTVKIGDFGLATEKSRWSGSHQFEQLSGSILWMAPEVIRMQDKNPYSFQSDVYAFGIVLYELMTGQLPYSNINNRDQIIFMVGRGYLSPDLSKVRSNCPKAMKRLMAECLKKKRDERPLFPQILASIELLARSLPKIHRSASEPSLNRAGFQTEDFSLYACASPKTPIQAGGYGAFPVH
T5 sequence (P09619 33-1106): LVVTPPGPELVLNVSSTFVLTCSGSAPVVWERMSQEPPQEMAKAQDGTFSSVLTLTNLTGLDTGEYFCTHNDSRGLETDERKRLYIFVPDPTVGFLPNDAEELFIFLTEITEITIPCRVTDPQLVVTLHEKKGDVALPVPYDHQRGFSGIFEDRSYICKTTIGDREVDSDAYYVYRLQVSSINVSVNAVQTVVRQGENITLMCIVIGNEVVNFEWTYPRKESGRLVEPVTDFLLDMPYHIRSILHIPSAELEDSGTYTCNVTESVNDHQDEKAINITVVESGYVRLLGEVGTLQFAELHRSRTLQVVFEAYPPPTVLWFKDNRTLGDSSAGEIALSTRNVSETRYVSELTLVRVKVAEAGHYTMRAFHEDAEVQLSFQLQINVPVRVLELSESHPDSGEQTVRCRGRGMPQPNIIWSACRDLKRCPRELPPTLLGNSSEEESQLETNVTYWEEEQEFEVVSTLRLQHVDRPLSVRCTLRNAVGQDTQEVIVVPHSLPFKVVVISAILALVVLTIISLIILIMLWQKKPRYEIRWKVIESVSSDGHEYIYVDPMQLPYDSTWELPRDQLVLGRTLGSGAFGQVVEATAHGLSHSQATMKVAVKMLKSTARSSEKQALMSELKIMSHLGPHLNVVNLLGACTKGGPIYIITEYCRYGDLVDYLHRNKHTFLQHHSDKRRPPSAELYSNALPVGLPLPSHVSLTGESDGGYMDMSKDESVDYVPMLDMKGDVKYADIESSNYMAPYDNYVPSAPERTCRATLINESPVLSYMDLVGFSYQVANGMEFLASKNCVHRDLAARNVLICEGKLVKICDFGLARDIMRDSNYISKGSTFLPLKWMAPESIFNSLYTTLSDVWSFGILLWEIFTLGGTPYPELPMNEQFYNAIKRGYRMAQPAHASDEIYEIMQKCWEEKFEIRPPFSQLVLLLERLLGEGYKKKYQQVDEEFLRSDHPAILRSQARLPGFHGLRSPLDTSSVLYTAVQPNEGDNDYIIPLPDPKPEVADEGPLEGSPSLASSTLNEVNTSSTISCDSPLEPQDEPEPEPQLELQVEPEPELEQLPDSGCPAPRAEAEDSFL
T6 sequence (P10721 26-976 V559D): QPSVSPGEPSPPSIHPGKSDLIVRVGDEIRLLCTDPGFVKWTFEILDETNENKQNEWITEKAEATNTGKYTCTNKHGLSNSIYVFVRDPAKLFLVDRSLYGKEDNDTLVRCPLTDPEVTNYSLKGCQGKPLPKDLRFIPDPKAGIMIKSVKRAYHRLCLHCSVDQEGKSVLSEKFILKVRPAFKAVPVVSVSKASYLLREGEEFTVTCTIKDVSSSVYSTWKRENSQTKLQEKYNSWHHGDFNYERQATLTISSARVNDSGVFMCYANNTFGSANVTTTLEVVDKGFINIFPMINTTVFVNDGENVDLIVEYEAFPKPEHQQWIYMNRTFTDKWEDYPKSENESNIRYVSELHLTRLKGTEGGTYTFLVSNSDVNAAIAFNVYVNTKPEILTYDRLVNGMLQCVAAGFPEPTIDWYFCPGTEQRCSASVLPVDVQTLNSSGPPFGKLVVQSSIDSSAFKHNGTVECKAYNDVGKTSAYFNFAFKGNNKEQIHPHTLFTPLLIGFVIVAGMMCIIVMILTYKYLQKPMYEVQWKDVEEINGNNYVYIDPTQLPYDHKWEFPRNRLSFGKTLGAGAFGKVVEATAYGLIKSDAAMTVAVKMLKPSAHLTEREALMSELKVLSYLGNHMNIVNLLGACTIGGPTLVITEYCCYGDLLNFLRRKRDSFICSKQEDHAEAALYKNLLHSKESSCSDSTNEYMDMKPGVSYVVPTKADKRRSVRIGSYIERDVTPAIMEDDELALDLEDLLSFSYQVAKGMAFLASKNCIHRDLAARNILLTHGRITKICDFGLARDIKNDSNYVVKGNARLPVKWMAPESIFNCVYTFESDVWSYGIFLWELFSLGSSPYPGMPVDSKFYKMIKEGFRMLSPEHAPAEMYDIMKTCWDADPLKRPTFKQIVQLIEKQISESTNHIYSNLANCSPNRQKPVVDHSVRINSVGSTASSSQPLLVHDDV
T1 sequence (P16234 24-1089): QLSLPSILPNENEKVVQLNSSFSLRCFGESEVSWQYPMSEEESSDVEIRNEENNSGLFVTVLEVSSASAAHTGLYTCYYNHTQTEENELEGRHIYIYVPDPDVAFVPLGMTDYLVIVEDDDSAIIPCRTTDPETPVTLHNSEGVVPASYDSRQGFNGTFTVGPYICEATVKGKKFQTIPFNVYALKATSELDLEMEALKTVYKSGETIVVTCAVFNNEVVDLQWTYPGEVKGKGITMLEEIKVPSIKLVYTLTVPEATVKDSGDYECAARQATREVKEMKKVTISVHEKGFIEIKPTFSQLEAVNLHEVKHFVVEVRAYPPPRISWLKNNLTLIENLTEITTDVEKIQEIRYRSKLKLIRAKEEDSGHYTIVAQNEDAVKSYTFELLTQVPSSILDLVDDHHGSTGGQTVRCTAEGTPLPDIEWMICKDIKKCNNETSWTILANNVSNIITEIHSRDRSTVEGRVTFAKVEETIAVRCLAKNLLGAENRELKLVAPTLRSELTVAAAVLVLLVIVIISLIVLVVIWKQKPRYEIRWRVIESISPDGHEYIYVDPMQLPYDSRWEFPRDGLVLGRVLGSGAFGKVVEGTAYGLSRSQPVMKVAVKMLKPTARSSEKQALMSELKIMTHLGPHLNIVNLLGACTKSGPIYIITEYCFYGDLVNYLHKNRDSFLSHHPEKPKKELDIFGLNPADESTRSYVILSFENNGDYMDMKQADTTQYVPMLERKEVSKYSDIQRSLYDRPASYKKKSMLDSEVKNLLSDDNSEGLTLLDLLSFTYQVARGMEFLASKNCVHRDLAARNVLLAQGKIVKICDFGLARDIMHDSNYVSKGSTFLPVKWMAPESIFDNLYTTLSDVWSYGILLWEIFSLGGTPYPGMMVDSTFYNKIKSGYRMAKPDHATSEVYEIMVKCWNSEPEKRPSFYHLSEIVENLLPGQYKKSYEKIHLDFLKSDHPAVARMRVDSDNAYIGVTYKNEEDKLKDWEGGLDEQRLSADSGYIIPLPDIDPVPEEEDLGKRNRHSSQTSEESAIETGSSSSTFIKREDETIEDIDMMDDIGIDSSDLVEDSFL
T7 sequence (P10721 26-976 K642E): as the sequence (P10721 26-976 V559D) above, with D534V, K617E counted along it

Structure (SMILES)	Kd (PDGFRA) [nM]	Kd (FLT4) [nM]	Kd (FLT3^D835H) [nM]	Kd (RET^V804L) [nM]	Kd (BRAF^V600E) [nM]	Kd (PDGFRB) [nM]	Kd (KIT^V559D) [nM]	Kd (RAFs) [nM]	IC50 (KIT^K642E) [nM]	Kd (FLT3) [nM]	Kd (FLT3^K663Q) [nM]	Inhibition of VEGF‐C‐induced migration (HuLECs)	Inhibition of proliferation [1]	IC50 [2] [nM]
CNC(=O)c1cc(Oc2ccc(NC(=O)Nc3ccc(Cl)c(C(F)(F)F)c3)c(F)c2)cc[n+]1[O-] [M‐2]	7.3	46	120	13	15	11	12	24 to 130	4 ± 2					
NC(=O)c1cc(Oc2ccc(NC(=O)Nc3ccc(Cl)c(C(F)(F)F)c3)c(F)c2)cc[n+]1[O-] [M‐5]		40		15	11	11	9.6			2.6	5.5			
CNC(=O)c1cc(Oc2ccc(NC(=O)Nc3ccc(Cl)c(C(F)(F)F)c3)c(F)c2)ccn1 [Regorafenib, reference compound]												inhibited	potent inhibition	~4
